These results are taken from patent publication US20240279278A1, “NMU RECEPTOR 2 AGONISTS” (Boehringer Ingelheim International GmbH, priority 2023, published 2024).

One assay concerns the target T1, human NMUR1 receptor (Homo sapiens, UniProt Q9HB89).
T1 construct: expressed in transfected cells; host or cells: CHO-K1
T1 sequence (Q9HB89 1-426): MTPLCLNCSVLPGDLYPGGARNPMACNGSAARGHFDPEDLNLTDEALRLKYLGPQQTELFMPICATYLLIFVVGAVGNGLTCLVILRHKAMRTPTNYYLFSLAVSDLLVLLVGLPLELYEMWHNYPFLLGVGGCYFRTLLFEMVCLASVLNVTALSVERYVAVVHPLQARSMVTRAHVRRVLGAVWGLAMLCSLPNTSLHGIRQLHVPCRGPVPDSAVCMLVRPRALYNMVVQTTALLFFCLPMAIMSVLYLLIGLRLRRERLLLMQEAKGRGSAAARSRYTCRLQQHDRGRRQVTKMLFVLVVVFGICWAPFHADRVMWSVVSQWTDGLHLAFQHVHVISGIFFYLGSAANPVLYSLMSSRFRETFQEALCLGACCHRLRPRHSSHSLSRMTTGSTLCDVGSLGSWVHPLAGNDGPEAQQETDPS
The experiment in a line: IP1 Gq HTRF assay, activation of human NMUR1 in buffer. The class given is cell-based. The note with it: CHO-K1 cells expressing human NMUR1, stimulation buffer with 0.1% BSA; read-out: EC50 (hNMUR1) buffer. The essentials: (§1)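 IP-One HTRF competition (665/620 nm ratio) read after 1 h agonist exposure at 37 °C in pH 7.4 HEPES/HBSS stimulation buffer containing 50 mM LiCl, 0.1% BSA, 1% DMSO. Cells: CHO-K1 stably expressing human NMUR2 or NMUR1. EC50 by 4-parameter nonlinear regression of 8-point curves.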
For orientation: In TR-FRET formats the signal depends on donor and acceptor labels being close together.

Assay [1] addresses T2, human NMUR2 receptor (Homo sapiens, UniProt Q9GZQ4). Kind of assay: IP1 Gq HTRF assay, activation of human NMUR2 in buffer. Type of assay: cell-based. The note with it: CHO-K1 cells expressing human NMUR2, stimulation buffer with 0.1% BSA; read-out: EC50 (hNMUR2) buffer. Also on record: expressed in transfected cells; host or cells: CHO-K1. The essentials:
as §1

Assay [2] deals with T2, human NMUR2 receptor. Kind of assay: IP1 Gq HTRF assay, activation of human NMUR2 in human plasma. Type of assay: cell-based. The arrangement: expressed in transfected cells; host or cells: CHO-K1. The note with it: CHO-K1 cells expressing human NMUR2, 100% human plasma; read-out: EC50 (hNMUR2) human plasma. The essentials:
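EC50 obtained via 4-parameter sigmoidal regression of HTRF IP-One signal (665 nm/620 nm), which falls as intracellular IP1 rises. Stimulation: 1 h, 37° C, peptides in human plasma plus 50 mM LiCl, 1% DMSO final, on NMUR2-expressing CHO-K1 cells, 8 concentrations.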

Assay [3] has as its target T3, human neuromedin U receptor 1 (human, UniProt Q9HB89 24-426).
T3 sequence (looked up): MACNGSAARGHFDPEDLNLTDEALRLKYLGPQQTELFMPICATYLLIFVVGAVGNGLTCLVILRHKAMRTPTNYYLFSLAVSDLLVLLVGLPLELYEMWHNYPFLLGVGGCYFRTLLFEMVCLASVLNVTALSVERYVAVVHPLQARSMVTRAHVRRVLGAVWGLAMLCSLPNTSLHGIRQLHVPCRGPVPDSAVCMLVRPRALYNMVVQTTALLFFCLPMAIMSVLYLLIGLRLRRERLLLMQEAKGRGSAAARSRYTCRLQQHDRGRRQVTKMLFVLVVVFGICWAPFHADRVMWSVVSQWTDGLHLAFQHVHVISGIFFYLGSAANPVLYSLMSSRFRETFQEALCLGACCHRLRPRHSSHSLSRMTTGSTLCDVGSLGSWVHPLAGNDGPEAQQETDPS
The experiment in a line: cell-based or functional assay.

Residues, ends and D or L forms follow the SMILES beside them.

T2 sequence (Q9GZQ4 whole entry): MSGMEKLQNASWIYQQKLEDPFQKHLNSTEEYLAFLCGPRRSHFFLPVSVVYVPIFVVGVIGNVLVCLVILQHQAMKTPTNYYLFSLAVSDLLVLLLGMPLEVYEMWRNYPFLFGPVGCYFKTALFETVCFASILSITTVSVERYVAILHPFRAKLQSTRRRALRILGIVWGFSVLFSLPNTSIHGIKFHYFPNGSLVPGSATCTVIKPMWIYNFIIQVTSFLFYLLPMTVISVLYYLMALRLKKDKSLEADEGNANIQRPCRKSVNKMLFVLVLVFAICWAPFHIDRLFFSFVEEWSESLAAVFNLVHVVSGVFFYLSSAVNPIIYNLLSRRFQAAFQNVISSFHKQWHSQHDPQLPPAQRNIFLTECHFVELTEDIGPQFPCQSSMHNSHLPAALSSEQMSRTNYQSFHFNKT

For orientation: EC50 means the midpoint of the concentration-response curve. In the case of `CCCC[C@H](NC(=O)[C@H](CC(C)C)N(C)C(=O)[C@H](Cc1ccccc1)NC(=O)[C@H](Cc1ccc(O)cc1)NC(=O)CN1CCN(CCNC(=O)CN(C)C(=O)CN(C)C(=O)CN(C)C(=O)CN(C)C(=O)CN(C)C(=O)CN(C)C(=O)CN(C)C(=O)CN(C)C(=O)CN(C)C(=O)CN(C)C(=O)CN(C)C(=O)CN(C)C(=O)CN(C)C(=O)CN(C)C(=O)CN(C)C(=O)CC[C@H](NC(=O)CC[C@H](NC(=O)CC[C@H](NC(=O)CCCCCCCCCCCCCCCCCCC(=O)O)C(=O)O)C(=O)O)C(=O)O)CC1)C(=O)N[C@@H](CCCCN)C(=O)N(C)[C@@H](C)C(=O)N[C@@H](CCCNC(=N)N)C(=O)NCC(N)=O` [Compound 50, C20DA-gGlu3-Sar15-AEPipAc-Tyr-Phe-NMeLeu-Nle-Lys-NMeAla-Arg-Gly-NH2] (HELM PEPTIDE1{[O=C(O)CCCCCCCCCCCCCCCCCCC(=O)[*:2]].[gGlu].[gGlu].[gGlu].[Sar].[Sar].[Sar].[Sar].[Sar].[Sar].[Sar].[Sar].[Sar].[Sar].[Sar].[Sar].[Sar].[Sar].[Sar].[O=C(CN1CCN(CCN[*:1])CC1)[*:2]].Y.F.[meL].[Nle].K.[meA].R.G.[am]}$$$$V2.0), the EC50 was over 1000 nM at human NMUR1 receptor, 23 nM at human NMUR2 receptor [1] and 69.9 nM on human NMUR2 receptor [2].

Regarding `CCCC[C@H](NC(=O)[C@H](CC(C)C)N(C)C(=O)[C@H](Cc1ccccc1)NC(=O)[C@H](Cc1ccc(O)cc1)NC(=O)CN1CCN(CCNC(=O)CN(C)C(=O)CN(C)C(=O)CN(C)C(=O)CN(C)C(=O)CN(C)C(=O)CN(C)C(=O)CN(C)C(=O)CN(C)C(=O)CN(C)C(=O)CN(C)C(=O)CN(C)C(=O)CN(C)C(=O)CN(C)C(=O)CN(C)C(=O)CN(C)C(=O)CC[C@H](NC(=O)CC[C@H](NC(=O)CC[C@H](NC(=O)CCCCCCCCCCCCCCCCC(=O)O)C(=O)O)C(=O)O)C(=O)O)CC1)C(=O)N[C@@H](CCCCN)C(=O)N(C)[C@@H](C)C(=O)N[C@@H](CCCNC(=N)N)C(=O)NCC(N)=O` [Compound 47, C18DA-gGlu3-Sar15-AEPipAc-Tyr-Phe-NMeLeu-Nle-Lys-NMeAla-Arg-Gly-NH2] (HELM PEPTIDE1{[O=C(O)CCCCCCCCCCCCCCCCC(=O)[*:2]].[gGlu].[gGlu].[gGlu].[Sar].[Sar].[Sar].[Sar].[Sar].[Sar].[Sar].[Sar].[Sar].[Sar].[Sar].[Sar].[Sar].[Sar].[Sar].[O=C(CN1CCN(CCN[*:1])CC1)[*:2]].Y.F.[meL].[Nle].K.[meA].R.G.[am]}$$$$V2.0), the EC50 was over 1000 nM on human NMUR1 receptor, 9.3 nM on human NMUR2 receptor [1] and 32.6 nM at human NMUR2 receptor [2].

B1: C20DA-gGlu4-Sar15-AEPipAc-Tyr-Phe-NMeLeu-Nle-Dbu-Pro-Arg-Gly-NH2 (peptide)
peptide: EEEEXXXXXXXXXXXXXXXXYFLXXPRG
HELM: PEPTIDE1{[O=C(O)CCCCCCCCCCCCCCCCCCC(=O)[*:2]].[gGlu].[gGlu].[gGlu].[gGlu].[Sar].[Sar].[Sar].[Sar].[Sar].[Sar].[Sar].[Sar].[Sar].[Sar].[Sar].[Sar].[Sar].[Sar].[Sar].[O=C(CN1CCN(CCN[*:1])CC1)[*:2]].Y.F.[meL].[Nle].[Dab].P.R.G.[am]}$$$$V2.0
SMILES: CCCC[C@H](NC(=O)[C@H](CC(C)C)N(C)C(=O)[C@H](Cc1ccccc1)NC(=O)[C@H](Cc1ccc(O)cc1)NC(=O)CN1CCN(CCNC(=O)CN(C)C(=O)CN(C)C(=O)CN(C)C(=O)CN(C)C(=O)CN(C)C(=O)CN(C)C(=O)CN(C)C(=O)CN(C)C(=O)CN(C)C(=O)CN(C)C(=O)CN(C)C(=O)CN(C)C(=O)CN(C)C(=O)CN(C)C(=O)CN(C)C(=O)CC[C@H](NC(=O)CC[C@H](NC(=O)CC[C@H](NC(=O)CC[C@H](NC(=O)CCCCCCCCCCCCCCCCCCC(=O)O)C(=O)O)C(=O)O)C(=O)O)C(=O)O)CC1)C(=O)N[C@@H](CCN)C(=O)N1CCC[C@H]1C(=O)N[C@@H](CCCNC(=N)N)C(=O)NCC(N)=O
With B1, the “EC50 (hNMUR1) buffer” value in assay [3] amounted to 770 nM.

B2: C20DA-gGlu3-Sar15-AEPipAc-Tyr-Phe-NMeLeu-Nle-NMeArg-NMeAla-Arg-Gly-NH2 (peptide)
peptide: EEEXXXXXXXXXXXXXXXXYFLXRARG
HELM: PEPTIDE1{[O=C(O)CCCCCCCCCCCCCCCCCCC(=O)[*:2]].[gGlu].[gGlu].[gGlu].[Sar].[Sar].[Sar].[Sar].[Sar].[Sar].[Sar].[Sar].[Sar].[Sar].[Sar].[Sar].[Sar].[Sar].[Sar].[O=C(CN1CCN(CCN[*:1])CC1)[*:2]].Y.F.[meL].[Nle].[meR].[meA].R.G.[am]}$$$$V2.0
SMILES: CCCC[C@H](NC(=O)[C@H](CC(C)C)N(C)C(=O)[C@H](Cc1ccccc1)NC(=O)[C@H](Cc1ccc(O)cc1)NC(=O)CN1CCN(CCNC(=O)CN(C)C(=O)CN(C)C(=O)CN(C)C(=O)CN(C)C(=O)CN(C)C(=O)CN(C)C(=O)CN(C)C(=O)CN(C)C(=O)CN(C)C(=O)CN(C)C(=O)CN(C)C(=O)CN(C)C(=O)CN(C)C(=O)CN(C)C(=O)CN(C)C(=O)CC[C@H](NC(=O)CC[C@H](NC(=O)CC[C@H](NC(=O)CCCCCCCCCCCCCCCCCCC(=O)O)C(=O)O)C(=O)O)C(=O)O)CC1)C(=O)N(C)[C@@H](CCCNC(=N)N)C(=O)N(C)[C@@H](C)C(=O)N[C@@H](CCCNC(=N)N)C(=O)NCC(N)=O
Turning to B2, the “EC50 (hNMUR1) buffer” value in assay [3] worked out at 1400 nM.

B3: C20DA-gGlu3-Sar15-AEPipAc-Tyr-Phe-NMeLeu-Nle-Orn-NMeAla-Arg-Gly-NH2 (peptide)
peptide: EEEXXXXXXXXXXXXXXXXYFLXXARG
HELM: PEPTIDE1{[O=C(O)CCCCCCCCCCCCCCCCCCC(=O)[*:2]].[gGlu].[gGlu].[gGlu].[Sar].[Sar].[Sar].[Sar].[Sar].[Sar].[Sar].[Sar].[Sar].[Sar].[Sar].[Sar].[Sar].[Sar].[Sar].[O=C(CN1CCN(CCN[*:1])CC1)[*:2]].Y.F.[meL].[Nle].[Orn].[meA].R.G.[am]}$$$$V2.0
SMILES: CCCC[C@H](NC(=O)[C@H](CC(C)C)N(C)C(=O)[C@H](Cc1ccccc1)NC(=O)[C@H](Cc1ccc(O)cc1)NC(=O)CN1CCN(CCNC(=O)CN(C)C(=O)CN(C)C(=O)CN(C)C(=O)CN(C)C(=O)CN(C)C(=O)CN(C)C(=O)CN(C)C(=O)CN(C)C(=O)CN(C)C(=O)CN(C)C(=O)CN(C)C(=O)CN(C)C(=O)CN(C)C(=O)CN(C)C(=O)CN(C)C(=O)CC[C@H](NC(=O)CC[C@H](NC(=O)CC[C@H](NC(=O)CCCCCCCCCCCCCCCCCCC(=O)O)C(=O)O)C(=O)O)C(=O)O)CC1)C(=O)N[C@@H](CCCN)C(=O)N(C)[C@@H](C)C(=O)N[C@@H](CCCNC(=N)N)C(=O)NCC(N)=O
In the case of B3, the “EC50 (hNMUR1) buffer” value in assay [3] was over 1000 nM.

B4: C18DA-gGlu3-Sar12-AEPipAc-Tyr-Phe-NMeLeu-Nle-NMeArg-Pro-Arg-Gly-NH2 (peptide)
peptide: EEEXXXXXXXXXXXXXYFLXRPRG
HELM: PEPTIDE1{[O=C(O)CCCCCCCCCCCCCCCCC(=O)[*:2]].[gGlu].[gGlu].[gGlu].[Sar].[Sar].[Sar].[Sar].[Sar].[Sar].[Sar].[Sar].[Sar].[Sar].[Sar].[Sar].[O=C(CN1CCN(CCN[*:1])CC1)[*:2]].Y.F.[meL].[Nle].[meR].P.R.G.[am]}$$$$V2.0
SMILES: CCCC[C@H](NC(=O)[C@H](CC(C)C)N(C)C(=O)[C@H](Cc1ccccc1)NC(=O)[C@H](Cc1ccc(O)cc1)NC(=O)CN1CCN(CCNC(=O)CN(C)C(=O)CN(C)C(=O)CN(C)C(=O)CN(C)C(=O)CN(C)C(=O)CN(C)C(=O)CN(C)C(=O)CN(C)C(=O)CN(C)C(=O)CN(C)C(=O)CN(C)C(=O)CN(C)C(=O)CC[C@H](NC(=O)CC[C@H](NC(=O)CC[C@H](NC(=O)CCCCCCCCCCCCCCCCC(=O)O)C(=O)O)C(=O)O)C(=O)O)CC1)C(=O)N(C)[C@@H](CCCNC(=N)N)C(=O)N1CCC[C@H]1C(=O)N[C@@H](CCCNC(=N)N)C(=O)NCC(N)=O
For the molecule B4, the “EC50 (hNMUR1) buffer” value in assay [3] stood at 190 nM.
